Read-outs that look alike come from different tables or passages of the source.
What was measured:
[1] = tested on: genotype 1b (Con1) stable HCV replicon in Huh-7-derived cells; assay: Stable subgenomic HCV replicon EC50, genotype 1b (Renilla luciferase); format: cell-based, hepatitis C virus; conditions: stable replicon genotype 1b, 72 h, read-out: EC50 1B RLUC
Outline: (§1)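 Compounds, three-fold diluted, were applied to Huh-7-derived cells harbouring luciferase replicons (genotype 1a H77, 1b Con1, 2a JFH-1, 4a ED43, with strain-specific adaptive mutations). Seventy-two hours later, intracellular replication was gauged by Renilla luciferase activity and EC50 derived by regression.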

[2] = target: HCV NS3 protease domain genotype 3a (Hepatitis C virus genotype 3a, UniProt Q81258); assay: Ki determination, NS3 protease genotype 3a (fluorogenic depsipeptide substrate); format: biochemical; conditions: 200 pM enzyme, NS4A peptide
Chain of HCV NS3 protease domain genotype 3a (Q81258 whole entry, looked up, the tested form may be a part): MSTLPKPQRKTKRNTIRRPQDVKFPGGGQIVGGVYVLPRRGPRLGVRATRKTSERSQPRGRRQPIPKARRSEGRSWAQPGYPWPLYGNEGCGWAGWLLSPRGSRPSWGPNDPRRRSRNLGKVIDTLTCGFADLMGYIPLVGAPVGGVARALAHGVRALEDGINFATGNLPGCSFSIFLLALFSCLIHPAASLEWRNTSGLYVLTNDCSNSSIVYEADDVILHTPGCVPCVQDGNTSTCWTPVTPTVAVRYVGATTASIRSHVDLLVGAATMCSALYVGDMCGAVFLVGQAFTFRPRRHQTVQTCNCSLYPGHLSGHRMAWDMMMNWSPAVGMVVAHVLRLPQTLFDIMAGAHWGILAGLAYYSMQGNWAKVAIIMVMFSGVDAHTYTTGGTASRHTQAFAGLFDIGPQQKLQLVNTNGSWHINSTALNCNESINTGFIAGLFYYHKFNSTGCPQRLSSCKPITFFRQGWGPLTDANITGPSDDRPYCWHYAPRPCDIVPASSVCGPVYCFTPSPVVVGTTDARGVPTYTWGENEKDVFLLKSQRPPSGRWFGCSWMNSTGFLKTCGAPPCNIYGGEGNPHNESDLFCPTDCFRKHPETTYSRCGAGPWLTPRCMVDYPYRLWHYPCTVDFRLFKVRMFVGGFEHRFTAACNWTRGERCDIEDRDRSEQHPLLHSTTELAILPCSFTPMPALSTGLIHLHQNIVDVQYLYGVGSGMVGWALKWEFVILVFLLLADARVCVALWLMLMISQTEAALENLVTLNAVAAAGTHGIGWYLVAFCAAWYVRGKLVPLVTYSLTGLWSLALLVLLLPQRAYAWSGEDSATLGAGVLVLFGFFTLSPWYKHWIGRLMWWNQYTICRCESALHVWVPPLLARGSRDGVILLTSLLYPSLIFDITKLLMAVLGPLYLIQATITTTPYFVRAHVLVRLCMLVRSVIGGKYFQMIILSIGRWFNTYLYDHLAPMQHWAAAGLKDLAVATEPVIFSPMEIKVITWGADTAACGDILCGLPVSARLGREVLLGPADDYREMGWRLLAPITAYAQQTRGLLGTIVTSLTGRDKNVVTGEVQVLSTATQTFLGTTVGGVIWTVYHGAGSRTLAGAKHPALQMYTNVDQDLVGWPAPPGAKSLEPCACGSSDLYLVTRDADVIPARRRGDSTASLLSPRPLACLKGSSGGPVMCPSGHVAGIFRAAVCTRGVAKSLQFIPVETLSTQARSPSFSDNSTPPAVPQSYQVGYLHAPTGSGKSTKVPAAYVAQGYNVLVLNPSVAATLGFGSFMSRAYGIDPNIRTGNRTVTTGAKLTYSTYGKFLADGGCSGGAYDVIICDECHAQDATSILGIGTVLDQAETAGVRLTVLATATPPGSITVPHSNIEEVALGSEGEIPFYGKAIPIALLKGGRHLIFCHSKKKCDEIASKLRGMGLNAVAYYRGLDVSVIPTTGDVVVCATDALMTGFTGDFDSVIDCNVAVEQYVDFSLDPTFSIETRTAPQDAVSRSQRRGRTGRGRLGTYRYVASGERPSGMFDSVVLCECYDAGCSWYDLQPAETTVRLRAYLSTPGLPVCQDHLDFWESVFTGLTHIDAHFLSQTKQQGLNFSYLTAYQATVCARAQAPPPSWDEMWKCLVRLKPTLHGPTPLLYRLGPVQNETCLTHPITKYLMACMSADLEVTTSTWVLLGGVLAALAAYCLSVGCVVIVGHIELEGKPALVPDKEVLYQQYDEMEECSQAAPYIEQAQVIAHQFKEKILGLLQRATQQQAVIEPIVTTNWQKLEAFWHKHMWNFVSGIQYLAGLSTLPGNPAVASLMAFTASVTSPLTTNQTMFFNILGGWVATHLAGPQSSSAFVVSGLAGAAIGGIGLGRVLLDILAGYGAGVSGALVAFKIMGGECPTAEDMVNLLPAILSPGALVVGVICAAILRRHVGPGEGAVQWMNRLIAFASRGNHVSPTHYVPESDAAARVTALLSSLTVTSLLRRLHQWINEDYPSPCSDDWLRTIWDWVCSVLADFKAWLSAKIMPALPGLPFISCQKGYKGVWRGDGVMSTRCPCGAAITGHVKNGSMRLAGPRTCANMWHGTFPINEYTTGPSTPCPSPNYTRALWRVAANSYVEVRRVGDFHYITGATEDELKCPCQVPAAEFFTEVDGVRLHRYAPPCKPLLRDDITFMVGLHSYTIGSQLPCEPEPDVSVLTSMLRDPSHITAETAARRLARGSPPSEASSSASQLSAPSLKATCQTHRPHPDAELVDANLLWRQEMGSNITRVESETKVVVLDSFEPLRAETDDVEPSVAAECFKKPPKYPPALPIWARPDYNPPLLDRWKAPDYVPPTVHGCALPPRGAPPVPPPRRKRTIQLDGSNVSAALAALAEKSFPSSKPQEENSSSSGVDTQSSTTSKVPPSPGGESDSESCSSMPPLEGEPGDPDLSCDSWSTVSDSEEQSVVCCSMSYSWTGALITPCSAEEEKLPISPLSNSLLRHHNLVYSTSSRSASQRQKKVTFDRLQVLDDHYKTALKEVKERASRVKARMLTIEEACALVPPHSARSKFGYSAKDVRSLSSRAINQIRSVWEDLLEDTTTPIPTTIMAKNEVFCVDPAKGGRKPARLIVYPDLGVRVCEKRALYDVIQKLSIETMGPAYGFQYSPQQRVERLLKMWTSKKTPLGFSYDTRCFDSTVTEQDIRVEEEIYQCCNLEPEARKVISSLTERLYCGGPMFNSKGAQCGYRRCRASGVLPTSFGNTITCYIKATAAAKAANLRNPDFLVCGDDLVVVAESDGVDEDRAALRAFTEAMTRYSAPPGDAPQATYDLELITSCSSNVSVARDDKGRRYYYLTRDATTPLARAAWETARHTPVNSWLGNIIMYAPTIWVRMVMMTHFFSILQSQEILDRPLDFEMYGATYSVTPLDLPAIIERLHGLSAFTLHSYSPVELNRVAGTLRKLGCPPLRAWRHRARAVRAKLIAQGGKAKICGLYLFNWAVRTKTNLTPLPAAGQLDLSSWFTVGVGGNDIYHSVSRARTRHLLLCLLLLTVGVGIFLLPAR
Outline: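 The NS3 protease domain (aa 1-181) with 20 μM NS4A peptide was used at 50 pM with 4 μM substrate (1b) or at 200 pM with 2 μM substrate (3a). Inhibitors (100 nM-5 pM) were pre-incubated 1 h at room temperature in HEPES/glycerol/DTT buffer with 10% DMSO. Steady-state rates (90-120 min) gave Ki via the Morrison equation, corrected for active enzyme and [S]/Km.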

[3] = tested on: genotype 3a (S52) wild type transient HCV replicon in Huh-7-derived cells; assay: Transient-transfected HCV replicon EC50, genotype 3a wild type; format: cell-based, hepatitis C virus; conditions: transient-transfected replicon genotype 3a wild type, 72 h, read-out: EC50 3A WT
[4] = tested on: genotype 4a (ED43) stable HCV replicon in Huh-7-derived cells; assay: Stable subgenomic HCV replicon EC50, genotype 4a (Renilla luciferase); format: cell-based, hepatitis C virus; conditions: 72 h, read-out: EC50 4A RLUC
Outline: as §1

[5] = tested on: genotype 2a (JFH-1) stable HCV replicon in Huh-7-derived cells; assay: Stable subgenomic HCV replicon EC50, genotype 2a (Renilla luciferase); format: cell-based, hepatitis C virus; conditions: stable replicon genotype 2a, 72 h, read-out: EC50 2A RLUC
Outline: as §1

[6] = tested on: genotype 1a (H77) wild type transient HCV replicon in Huh-7-derived cells; assay: Transient-transfected HCV replicon EC50, genotype 1a wild type; format: cell-based, hepatitis C virus; conditions: 72 h, transient-transfected replicon genotype 1a wild type, read-out: EC50 1A WT
[7] = tested on: genotype 3a (S52) stable HCV replicon in Huh-7-derived cells; assay: Stable subgenomic HCV replicon EC50, genotype 3a (Renilla luciferase); format: cell-based, hepatitis C virus; conditions: 72 h, read-out: EC50 3A RLUC
[8] = tested on: genotype 1a (H77) stable HCV replicon in Huh-7-derived cells; assay: Stable subgenomic HCV replicon EC50, genotype 1a (Renilla luciferase); format: cell-based, hepatitis C virus; conditions: stable replicon genotype 1a, 72 h, read-out: EC50 1A RLUC
Outline: as §1

[9] = tested on: genotype 1b NS3/4a protease inhibitor resistant variant D168A transient HCV replicon in Huh-7-derived cells; assay: Transient-transfected HCV replicon EC50, genotype 1b D168A; format: cell-based, hepatitis C virus; conditions: 72 h
[10] = tested on: genotype 1a NS3/4a protease inhibitor resistant variant R155K transient HCV replicon in Huh-7-derived cells; assay: Transient-transfected HCV replicon EC50, genotype 1a R155K; format: cell-based, hepatitis C virus; conditions: 72 h
[11] = tested on: genotype 1b (Con1) wild type transient HCV replicon in Huh-7-derived cells; assay: Transient-transfected HCV replicon EC50, genotype 1b wild type; format: cell-based, hepatitis C virus; conditions: 72 h, transient-transfected replicon genotype 1b wild type, read-out: EC50 1B WT
[12] = Hepatitis C virus, read-out: EC50 1B D168A, transient-transfected replicon genotype 1b D168A resistant variant, 72 h
[13] = Hepatitis C virus, read-out: EC50 1A R155K, transient-transfected replicon genotype 1a R155K resistant variant, 72 h
[14] = stable replicon genotype 4a, Renilla luciferase
[15] = stable replicon genotype 3a, Renilla luciferase
[16] = transient-transfected replicon genotype 1b D168A resistant variant, read-out: EC50 1B D168A
[17] = transient-transfected replicon genotype 1a R155K resistant variant, read-out: EC50 1A R155K

Molecule	EC50 ([1]; Hepatitis C virus) [nM]	Ki [2] [nM]	EC50 ([3]; Hepatitis C virus) [nM]	EC50 ([4]; Hepatitis C virus) [nM]	EC50 ([5]; Hepatitis C virus) [nM]	EC50 ([6]; Hepatitis C virus) [nM]	EC50 ([7]; Hepatitis C virus) [nM]	EC50 ([8]; Hepatitis C virus) [nM]	EC50 [9, 12] [nM]	EC50 [10, 13] [nM]	EC50 ([11]; Hepatitis C virus) [nM]	other results
CC[C@@H]1[C@@H]2CN(C(=O)[C@H](C(C)(C)C)NC(=O)O[C@@H]3CCCC[C@H]3CCCCCc3nc4ccc(OC)cc4nc3O2)[C@@H]1C(=O)N[C@]1(C(=O)NS(=O)(=O)C2CC2)C[C@H]1C(F)F [Example 66, (4aR,8S,11 S,12S,13R,25aR)-8-tert-butyl-N-[(1R,2R)-1-[(cyclopropylsulfonyl)carbamoyl]-2-(difluoromethyl)cyclopropyl]-12-ethyl-17-methoxy-6,9-dioxo-2,3,4,4a,6,7,8,9,12,13,21,22,23,24,25,25a-hexadecahydro-1H,11H-10,13-methanoquinoxalino[2,3-k][1,10,3,6]benzodioxadiazacyclononadecine-11-carboxamide]	20	0.06	735	25	105	35	1790	37	396	240	14	–
COc1ccc2nc3c(nc2c1)O[C@H]1CN(C(=O)[C@H](C(C)(C)C)NC(=O)O[C@@H]2CCCC[C@H]2CCCCC3(F)F)[C@H](C(=O)N[C@]2(C(=O)NS(=O)(=O)C3CC3)C[C@H]2C(F)F)[C@@H]1C [Example 68, (4aR,8S,11 S,12S,13R,25aS)-8-tert-butyl-N-[(1R,2R)-1-[(cyclopropylsulfonyl)carbamoyl]-2-(difluoromethyl)cyclopropyl]-21,21-difluoro-17-methoxy-12-methyl-6,9-dioxo-2,3,4,4a,6,7,8,9,12,13,21,22,23,24,25,25a-hexadecahydro-1H,11H-10,13-methanoquinoxalino[2,3-k][1,10,3,6]benzodioxadiazacyclononadecine-11-carboxamide]	7.7	0.63	139	9.4	18	14	364	13	78	37	4.4	–
CCOc1ccc2nc3c(nc2c1)O[C@H]1CN(C(=O)[C@H](C(C)(C)C)NC(=O)O[C@@H]2C[C@H]2CCCCC3)[C@H](C(=O)N[C@]2(C(=O)NS(=O)(=O)C3(C)CC3)C[C@H]2C(F)F)[C@@H]1CC [Example 69, (1aR,5S,8S,9S,10R,22aR)-5-tert-butyl-N-[(1R,2R)-2-(difluoromethyl)-1-{[(1-methylcyclopropyl)sulfonyl]carbamoyl}cyclopropyl]-14-ethoxy-9-ethyl-3,6-dioxo-1,1a,3,4,5,6,9,10,18,19,20,21,22,22a-tetradecahydro-8H-7,10-methanocyclopropa[18,19][1,10,3,6]dioxadiazacyclononadecino[11,12-b]quinoxaline-8-carboxamide]	4.9	0.17	42	5.8	11	8.2	64	5.2	28	15	3.9	–
COc1ccc2nc3c(nc2c1)O[C@H]1CN(C(=O)[C@H](C(C)(C)C)NC(=O)O[C@@H]2CC4CC(C4)[C@H]2CCCCC3)[C@H](C(=O)N[C@]2(C(=O)NS(=O)(=O)C3CC3)C[C@H]2C(F)F)[C@@H]1C [Example 71, (4aR,8S,11S,12S,13R,25aR)-8-tert-butyl-N-[(1R,2R)-1-[(cyclopropylsulfonyl)carbamoyl]-2-(difluoromethyl)cyclopropyl]-17-methoxy-12-methyl-6,9-dioxo-2,3,4,4a,6,7,8,9,12,13,21,22,23,24,25,25a-hexadecahydro-1H,11H-1,3,10,13-dimethanoquinoxalino[2,3-k][1,10,3,6]benzodioxadiazacyclononadecine-11-carboxamide]	5.3	0.14	49	5.3	23	9.1	160	6.5	66	30	3.8	–
COc1ccc2nc3c(nc2c1)O[C@H]1CN(C(=O)[C@H](C(C)(C)C)NC(=O)O[C@]2(C)C[C@H]2CCCCC3(F)F)[C@H](C(=O)N[C@]2(C(=O)NS(=O)(=O)C3(C)CC3)C[C@H]2C(F)F)[C@@H]1C [Example 76, (1aR,5S,8S,9S,10R,22aR)-5-tert-butyl-N-[(1R,2R)-2-(difluoromethyl)-1-{[(1-methylcyclopropyl)sulfonyl]carbamoyl}cyclopropyl]-18,18-difluoro-14-methoxy-1a,9-dimethyl-3,6-dioxo-1,1a,3,4,5,6,9,10,18,19,20,21,22,22a-tetradecahydro-8H-7,10-methanocyclopropa[18,19][1,10,3,6]dioxadiazacyclononadecino[11,12-b]quinoxaline-8-carboxamide]	2.2	0.06	3.4	1.9	2.4	2	9	2.4	2.8	2.1	1	–
CC[C@@H]1[C@@H]2CN(C(=O)[C@H](C(C)(C)C)NC(=O)O[C@@H]3C[C@H]3CC/C=C/C(F)(F)c3nc4ccc(OC)cc4nc3O2)[C@@H]1C(=O)N[C@]1(C(=O)NS(=O)(=O)C2(C)CC2)C[C@H]1C(F)F [Example 89]	–	0.05	–	–	–	–	–	–	–	–	–	EC50 [1]: 6.1 nM; EC50 [3]: 5.5 nM; EC50 [4, 14]: 4.6 nM; EC50 [5]: 4.3 nM; EC50 [6]: 6 nM; EC50 [7, 15]: 19 nM; EC50 [8]: 6 nM; EC50 [9, 16]: 5.1 nM; EC50 [10, 17]: 3.7 nM; EC50 [11]: 3.2 nM
(1aR,5S,8S,9S,10R,22aR)-5-tert-butyl-14-chloro-N-[(1R,2R)-2-(difluoromethyl)-1-{[(1-methylcyclopropyl)sulfonyl]carbamoyl}cyclopropyl]-18,18-difluoro-9-methyl-3,6-dioxo-1,1a,3,4,5,6,9,10,18,19,20,21,22,22a-tetradecahydro-8H-7,10-methanocyclopropa[18,19][3,6]dioxadiazacyclononadecino[11,12-b]quinoxaline-8-carboxamide [Example 88]	–	0.29	–	–	–	–	–	–	–	–	–	EC50 [1]: 4.6 nM; EC50 [3]: 35 nM; EC50 [4, 14]: 4.1 nM; EC50 [5]: 2.7 nM; EC50 [6]: 5 nM; EC50 [7, 15]: 105 nM; EC50 [8]: 9.3 nM; EC50 [9, 16]: 24 nM; EC50 [10, 17]: 14 nM; EC50 [11]: 5.5 nM

— patent US10335409B2 (priority 2012, dated 2019)
